The values below are quoted from earlier work in US20250009771A1, “PHARMACEUTICAL COMPOSITION FOR TREATING COLORECTAL CANCER, INCLUDING TUMOR-TARGETED LIPOSOMES CONTAINING PLATYCODIN D2” (INDUSTRY-UNIVERSITY COOPERATION FOUNDATION HANYANG …, priority 2023, published 2025).

The target of one data set is T1, BCL-XL (Homo sapiens, UniProt Q07817).
T1 construct: host or cells: adenomas and tumor organoids (endogenous protein)
Particulars: cited from earlier work.

For data set [1] the following is noted: slightly acidic pH; cited from earlier work.

T1 sequence (Q07817 whole entry, species assumed): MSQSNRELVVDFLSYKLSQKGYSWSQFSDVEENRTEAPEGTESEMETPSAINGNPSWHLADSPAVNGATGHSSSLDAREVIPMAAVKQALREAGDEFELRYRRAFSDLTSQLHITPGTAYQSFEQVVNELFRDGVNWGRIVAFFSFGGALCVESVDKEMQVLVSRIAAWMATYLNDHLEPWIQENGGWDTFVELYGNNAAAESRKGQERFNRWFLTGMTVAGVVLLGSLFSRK

With `CN(C)CC#Cc1ccc(OCCCc2sc(N3CCc4cccc(C(=O)Nc5nc6ccccc6s5)c4C3)nc2C(=O)O)c(F)c1` [A-1155463], on BCL-XL, the “clonogenic potential of adenomas and tumor organoids” value is “significantly impaired”.
“GLAGLAGLLGLEGLLGLPLGLLEGLWLGLELEGN [ATRAM, pH-responsive acidity-triggered rational membrane peptide]”: the “pK of insertion into the cell membrane” value in data set [1] is 6.5.
